Source: PubChem BioAssay AID1963826 (Molecular Pharmacology Branch, DTP, NCI, 2024)

Tested on: 926638-142-R-J1-PDC complex spheroid viability
Assay: Anticancer human tumor 926638-142-R-J1-PDC patient-derived endometrial carcinoma cell line growth inhibition [POLQ]
Details: for IC50: curve of first compound; for viability, T/C: stronger effect = lower value; active = viability on the fitted dose curve at most 10% of control; inactive = the rest
In short: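 Complex spheroid viability model combining PDC tumour cells with endothelial (HUVEC) and MSC stromal cells. Novobiocin, ART-558 or RP6685 were tested singly and in combination with standard and investigational anticancer drugs. Each was titrated in half-log steps from near clinical Cmax, or from 10 microM where Cmax was unknown.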

[1] = second compound 0.0316 µM, first compound 0.0316 µM
[2] = second compound 0.0316 µM, first compound 0.1 µM
[3] = second compound 0.0316 µM, first compound 0.316 µM
[4] = second compound 0.0316 µM, first compound 1 µM
[5] = second compound 0.0316 µM, first compound 3.16 µM
[6] = second compound 0.0316 µM, first compound 10 µM
[7] = second compound 0.1 µM, first compound 0.0316 µM
[8] = second compound 0.1 µM, first compound 0.1 µM
[9] = second compound 0.1 µM, first compound 0.316 µM
[10] = second compound 0.1 µM, first compound 1 µM
[11] = second compound 0.1 µM, first compound 3.16 µM
[12] = second compound 0.1 µM, first compound 10 µM
[13] = second compound 0.316 µM, first compound 0.0316 µM
[14] = second compound 0.316 µM, first compound 0.1 µM
[15] = second compound 0.316 µM, first compound 0.316 µM
[16] = second compound 0.316 µM, first compound 1 µM
[17] = second compound 0.316 µM, first compound 3.16 µM
[18] = second compound 0.316 µM, first compound 10 µM
[19] = second compound 1 µM, first compound 0.0316 µM
[20] = second compound 1 µM, first compound 0.1 µM
[21] = second compound 1 µM, first compound 0.316 µM
[22] = second compound 1 µM, first compound 1 µM
[23] = second compound 1 µM, first compound 3.16 µM
[24] = second compound 1 µM, first compound 10 µM
[25] = second compound 3.16 µM, first compound 0.0316 µM
[26] = second compound 3.16 µM, first compound 0.1 µM
[27] = second compound 3.16 µM, first compound 0.316 µM
[28] = second compound 3.16 µM, first compound 1 µM
[29] = second compound 3.16 µM, first compound 3.16 µM
[30] = second compound 3.16 µM, first compound 10 µM
[31] = second compound 10 µM, first compound 0.0316 µM
[32] = second compound 10 µM, first compound 0.1 µM
[33] = second compound 10 µM, first compound 0.316 µM
[34] = second compound 10 µM, first compound 1 µM
[35] = second compound 10 µM, first compound 3.16 µM
[36] = second compound 10 µM, first compound 10 µM
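Note: spheroids exposed to drugs for one week before readout.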
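Throughout, for viability, T/C: percent viability relative to DMSO vehicle control wells set as 100%.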

Nc1ccn(C2OC(CO)C(O)C2(F)F)c(=O)n1 (centres undefined) + COC1C(OC(N)=O)C(O)C(Oc2ccc3c(O)c(NC(=O)c4ccc(O)c(CC=C(C)C)c4)c(=O)oc3c2C)OC1(C)C
463 nM: IC50 (second compound 10 µM)
874 nM: IC50 (second compound 3.16 µM)
1010 nM: IC50 (second compound 0.0316 µM)
inactive: viability, T/C [1] 81.7% | viability, T/C [2] 70.2% | viability, T/C [3] 49.4% | viability, T/C [4] 59.7% | viability, T/C [5] 41.4% | viability, T/C [6] 26.2% | viability, T/C [7] 86.2% | viability, T/C [8] 67.3% | viability, T/C [9] 61.6% | viability, T/C [10] 55% | viability, T/C [11] 50.3% | viability, T/C [12] 26.3% | viability, T/C [13] 75.8% | viability, T/C [14] 61.4% | viability, T/C [15] 47% | viability, T/C [16] 52.4% | viability, T/C [17] 36.8% | viability, T/C [18] 33.1% | viability, T/C [19] 81.3% | viability, T/C [20] 70.7% | viability, T/C [21] 56.6% | viability, T/C [22] 45.6% | viability, T/C [23] 48.7% | viability, T/C [24] 28.2% | viability, T/C [25] 79% | viability, T/C [26] 62.8% | viability, T/C [27] 55.8% | viability, T/C [28] 51.4% | viability, T/C [29] 45.7% | viability, T/C [30] 25% | viability, T/C [31] 83.3% | viability, T/C [32] 73.8% | viability, T/C [33] 41.7% | viability, T/C [34] 46.9% | viability, T/C [35] 47.1% | viability, T/C [36] 28.2%
924 nM: IC50 (second compound 1 µM)
1600 nM: IC50 (second compound 0.1 µM)
470 nM: IC50 (second compound 0.316 µM)

COc1cccc2c1C(=O)c1c(O)c3c(c(O)c1C2=O)CC(O)(C(=O)CO)CC3OC1CC(N)C(O)C(C)O1 (centres undefined) + Cc1cccc(N(C)C(=O)C2C(O)CCN2c2nc(C)cc(C(F)(F)F)c2C#N)c1
inactive: viability, T/C [1] 76.8% | viability, T/C [2] 59.4% | viability, T/C [3] 21% | viability, T/C [7] 68.6% | viability, T/C [8] 65% | viability, T/C [9] 18.5% | viability, T/C [13] 79.3% | viability, T/C [14] 61.9% | viability, T/C [15] 19% | viability, T/C [19] 71.6% | viability, T/C [20] 50.4% | viability, T/C [21] 17.4% | viability, T/C [25] 82.1% | viability, T/C [26] 54.8% | viability, T/C [27] 15.1% | viability, T/C [31] 70.5% | viability, T/C [32] 58.4% | viability, T/C [33] 14.2%
115 nM: IC50 (second compound 3.16 µM)
124 nM: IC50 (second compound 10 µM)
102 nM: IC50 (second compound 1 µM)
144 nM: IC50 (second compound 0.1 µM)
133 nM: IC50 (second compound 0.0316 µM)
138 nM: IC50 (second compound 0.316 µM)
active: viability, T/C [4] 2.89% | viability, T/C [5] 0.19% | viability, T/C [6] 0.26% | viability, T/C [10] 3.26% | viability, T/C [11] 0.2% | viability, T/C [12] 0.33% | viability, T/C [16] 2.18% | viability, T/C [17] 0.15% | viability, T/C [18] 0.25% | viability, T/C [22] 2.2% | viability, T/C [23] 0.14% | viability, T/C [24] 0.24% | viability, T/C [28] 2.08% | viability, T/C [29] 0.25% | viability, T/C [30] 0.32% | viability, T/C [34] 1.62% | viability, T/C [35] 0.26% | viability, T/C [36] 0.24%
